Consider 15 compounds from US20240409585A1, “MACROCYCLIC IMMUNOMODULATORS” (priority 2021, published 2024).

Structures are written as SMILES. Numbered stars: 1 amine (or outer) side, 2 acyl side, 3 side chain; on linkers, the order of the positions; unused ones are H or OH. Bridge positions count the residues as written; N and C are the ends. Square brackets hold non-standard residues; d marks the D form. Peptide text beside a SMILES is read from it. * marks the point of attachment. ξ: configuration not given here. Trp(1-CH2COOH) = N[C@@H](Cc1cn(CC(=O)O)c2ccccc12)C(=O)O; Phe(4-CONH2) = NC(=O)c1ccc(C[C@H](N)C(=O)O)cc1; Phe(4-COOH) = N[C@@H](Cc1ccc(C(=O)O)cc1)C(=O)O; Bip = N[C@@H](Cc1ccc(-c2ccccc2)cc1)C(=O)O; Phe(3-OMe) = COc1cccc(C[C@H](N)C(=O)O)c1; X50 = C[C@@H](C(=O)[*:2])N(CCCCCN)[*:1]; Phe(3-Me) = Cc1cccc(C[C@H](N)C(=O)O)c1; Val(3-OH) = CC(C)(O)[C@H](N)C(=O)O; 3Pal = N[C@@H](Cc1cccnc1)C(=O)O; 4Pal = N[C@@H](Cc1ccncc1)C(=O)O; Cha = N[C@@H](CC1CCCCC1)C(=O)O; Cit = NC(=O)NCCC[C@H](N)C(=O)O; Ile(3ξ) = CCC(C)[C@H](N)C(=O)O; Thr(3ξ) = CC(O)[C@H](N)C(=O)O; NMeAbu = CC[C@H](NC)C(=O)O; Carboxymethyl = O=C(O)C*; NMeA = CN[C@@H](C)C(=O)O; Orn = NCCC[C@H](N)C(=O)O; Dab = NCC[C@H](N)C(=O)O; Abu = CC[C@H](N)C(=O)O; Dap = NC[C@H](N)C(=O)O

T1 sequence (Q15116 25-288): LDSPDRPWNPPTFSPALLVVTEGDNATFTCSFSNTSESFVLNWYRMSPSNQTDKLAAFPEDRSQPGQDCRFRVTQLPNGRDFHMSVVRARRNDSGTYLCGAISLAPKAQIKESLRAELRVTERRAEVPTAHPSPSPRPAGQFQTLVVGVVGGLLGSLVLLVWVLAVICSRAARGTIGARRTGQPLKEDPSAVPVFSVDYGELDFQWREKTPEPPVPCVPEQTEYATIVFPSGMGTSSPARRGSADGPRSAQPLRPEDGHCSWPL

The test has as its target T1, PE-labeled human PD-L1-Ig binding to Jurkat cell line over-expressing human PD-1 (Jurkat-PD-1) (Homo sapiens, UniProt Q15116).
T1 construct: expressed in transfected cells; host or cells: Jurkat
The test is described as follows: Jurkat-PD-1 Cell Binding High-Content Screening Assay (CBA): Method 1. Conditions: Jurkat-hPD-1 cells, PE-labeled PD-L1-Ig 20 nM final; read-out: Jurkat HPDL1 PD1 IC50 (uM) (Method 1).
In the case of `CC(C)C[C@@H]1NC(=O)[C@H](CCN)NC(=O)[C@@H](CC(C)C)NC(=O)[C@H](C)N(C)C(=O)[C@H](C(C)C)NC(=O)[C@H](Cc2ccc(-c3ccccc3)cc2)NC(=O)[C@H](C(C)C)NC(=O)[C@H](Cc2c[nH]c3ccccc23)NC(=O)[C@H](CC(=O)O)NC(=O)[C@H](Cc2ccc(O)cc2)NC(=O)[C@H](CCCNC(=N)N)NC(=O)CSC[C@@H](C(=O)N[C@@H](C)C(N)=O)NC(=O)[C@H]([C@@H](C)O)NC(=O)[C@H](C(C)C)NC1=O` [Compound 1394] ({CH2CO}-RYDWV[Bip]V[NMeA][dL][Dab]LVTCA-NH2; thioether N-14), the IC50 came out at 0.01 µM.
For `CCC(C)[C@@H]1NC(=O)[C@H](Cc2ccc(-c3ccccc3)cc2)NC(=O)[C@H](C(C)C)NC(=O)[C@H](Cc2c[nH]c3ccccc23)NC(=O)[C@H](CC(=O)O)NC(=O)[C@H](Cc2ccc(O)cc2)NC(=O)[C@H](CC(N)=O)NC(=O)CSC[C@@H](C(=O)N[C@@H](C)C(N)=O)NC(=O)[C@H](C(C)O)NC(=O)[C@H](C(C)C)NC(=O)[C@H](CC(C)C)NC(=O)[C@H](CCN)NC(=O)[C@@H](CC(C)C)NC(=O)[C@H](C)N(C)C1=O` (stereo partly drawn) [Compound 2040] ({CH2CO}-NYDWV[Bip][Ile(3ξ)][NMeA][dL][Dab]LV[Thr(3ξ)]CA-NH2; thioether N-14) the value was 0.05 µM; for `CC(C)C[C@@H]1NC(=O)[C@H](CCCNC(=N)N)NC(=O)[C@@H](CC(C)C)NC(=O)[C@H](C)N(C)C(=O)[C@H](CCCNC(=N)N)NC(=O)[C@H](Cc2ccc(-c3ccccc3)cc2)NC(=O)[C@H](C(C)C)NC(=O)[C@H](Cc2c[nH]c3ccccc23)NC(=O)[C@H](CC(=O)O)NC(=O)[C@H](Cc2cccnc2)NC(=O)[C@H](Cc2ccccc2)NC(=O)CSC[C@@H](C(=O)N[C@@H](C)C(N)=O)NC(=O)[C@H]([C@@H](C)O)NC(=O)[C@H](C(C)C)NC1=O` [Compound 1101] ({CH2CO}-F[3Pal]DWV[Bip]R[NMeA][dL]RLVTCA-NH2; thioether N-14), 0.29 µM.
Consider `CC(C)C[C@@H]1NC(=O)[C@H](Cc2c[nH]c3ccccc23)NC(=O)[C@H](CC(=O)O)NC(=O)[C@H](Cc2ccc(O)cc2)NC(=O)[C@H](Cc2ccccc2)NC(=O)CSC[C@@H](C(=O)N[C@@H](C)C(N)=O)NC(=O)[C@H]([C@@H](C)O)NC(=O)[C@H](CCCCN)NC(=O)[C@H](CC(C)C)NC(=O)[C@H](CC(N)=O)NC(=O)[C@@H](C)NC(=O)[C@H](C)N(C)C(=O)[C@H](C(C)C)NC(=O)[C@H](Cc2ccc(-c3ccccc3)cc2)NC1=O` [Compound 1766] ({CH2CO}-FYDWL[Bip]V[NMeA][dA]NLKTCA-NH2; thioether N-14), for which the concentration for half-maximal inhibition (IC50) was 0.04 µM.
The value for `CC(C)C[C@@H]1NC(=O)[C@H](CCN)NC(=O)[C@@H](CC(C)C)NC(=O)[C@H](C)N(C)C(=O)[C@H](CCCNC(N)=O)NC(=O)[C@H](Cc2ccc(-c3ccccc3)cc2)NC(=O)[C@H](C(C)C)NC(=O)[C@H](Cc2c[nH]c3ccccc23)NC(=O)[C@H](CC(=O)O)NC(=O)[C@H](Cc2ccc(C(=O)O)cc2)NC(=O)[C@H](CC(N)=O)NC(=O)CSC[C@@H](C(=O)N[C@@H](C)C(N)=O)NC(=O)[C@H]([C@@H](C)O)NC(=O)[C@H](C(C)C)NC1=O` [Compound 1317] ({CH2CO}-N[Phe(4-COOH)]DWV[Bip][Cit][NMeA][dL][Dab]LVTCA-NH2; thioether N-14) was 0.04 µM; that for `CC(C)C[C@@H]1NC(=O)[C@H](CCN)NC(=O)[C@@H](CC(C)C)NC(=O)[C@H](C)N(C)C(=O)[C@H](CCC(=O)O)NC(=O)[C@H](Cc2ccc(-c3ccccc3)cc2)NC(=O)[C@H](C(C)C)NC(=O)[C@H](Cc2c[nH]c3ccccc23)NC(=O)[C@H](CC(=O)O)NC(=O)[C@H](Cc2ccc(OCC(=O)O)cc2)NC(=O)[C@H](CC(N)=O)NC(=O)CSC[C@@H](C(=O)N[C@@H](C)C(N)=O)NC(=O)[C@H]([C@@H](C)O)NC(=O)[C@H](C(C)C)NC1=O` [Compound 1390] ({CH2CO}-NY(Carboxymethyl)DWV[Bip]E[NMeA][dL][Dab]LVTCA-NH2; thioether N-14) was 0.11 µM.
For `Cc1cccc(C[C@@H]2NC(=O)[C@H](CC(=O)O)NC(=O)[C@H](Cc3ccc(OCC(=O)O)cc3)NC(=O)[C@H](CC(N)=O)NC(=O)CSC[C@@H](C(N)=O)NC(=O)[C@H](CCC(=O)O)NC(=O)[C@H](C(C)C)NC(=O)[C@H](CC3CCCCC3)NC(=O)[C@H](CCN)NC(=O)[C@@H](CC(C)C)NC(=O)[C@H](C)N(C)C(=O)[C@H](Cc3ccc(OCC(=O)O)cc3)NC(=O)[C@H](Cc3ccc(-c4ccccc4)cc3)NC(=O)[C@H](Cc3ccc(OCC(=O)O)cc3)NC2=O)c1` [Compound 1667] ({CH2CO}-NY(Carboxymethyl)D[Phe(3-Me)]Y(Carboxymethyl)[Bip]Y(Carboxymethyl)[NMeA][dL][Dab][Cha]VEC-NH2; thioether N-14) the value was 0.11 µM; for `CC(C)C[C@@H]1NC(=O)[C@H](CCCNC(=N)N)NC(=O)[C@@H](CC(C)C)NC(=O)[C@H](C)N(C)C(=O)[C@H](CCCNC(=N)N)NC(=O)[C@H](Cc2ccc(-c3ccccc3)cc2)NC(=O)[C@H](C(C)C)NC(=O)[C@H](Cc2c[nH]c3ccccc23)NC(=O)[C@H](CC(=O)O)NC(=O)[C@H](Cc2ccc(O)cc2)NC(=O)[C@H](CC(N)=O)NC(=O)CSC[C@@H](C(=O)N[C@@H](C)C(N)=O)NC(=O)[C@H](CO)NC(=O)[C@H](C(C)C)NC1=O` [Compound 1033] ({CH2CO}-NYDWV[Bip]R[NMeA][dL]RLVSCA-NH2; thioether N-14), 0.03 µM.
The value for `CC(C)C[C@@H]1NC(=O)[C@H](CCCNC(=N)N)NC(=O)[C@@H](CC(C)C)NC(=O)[C@H](C)N(C)C(=O)[C@H](CCCNC(=N)N)NC(=O)[C@H](Cc2ccc(-c3ccccc3)cc2)NC(=O)[C@H](C(C)C)NC(=O)[C@H](Cc2c[nH]c3ccccc23)NC(=O)[C@H](CC(=O)O)NC(=O)[C@H](Cc2ccc(C(N)=O)cc2)NC(=O)[C@H](Cc2ccccc2)NC(=O)CSC[C@@H](C(=O)N[C@@H](C)C(N)=O)NC(=O)[C@H]([C@@H](C)O)NC(=O)[C@H](C(C)C)NC1=O` [Compound 1099] ({CH2CO}-F[Phe(4-CONH2)]DWV[Bip]R[NMeA][dL]RLVTCA-NH2; thioether N-14) was 0.03 µM; that for `CC(C)C[C@@H]1NC(=O)[C@H](CCCNC(=N)N)NC(=O)[C@H](Cc2cn(CC(=O)O)c3ccccc23)NC(=O)[C@H](C)N(C)C(=O)[C@H](CCCNC(=N)N)NC(=O)[C@H](Cc2ccc(-c3ccccc3)cc2)NC(=O)[C@H](C(C)C)NC(=O)[C@H](Cc2c[nH]c3ccccc23)NC(=O)[C@H](CC(=O)O)NC(=O)[C@H](Cc2ccc(O)cc2)NC(=O)[C@H](Cc2ccccc2)NC(=O)CSC[C@@H](C(=O)NCC(N)=O)NC(=O)[C@H](CO)NC(=O)[C@H](C(C)C)NC1=O` [Compound 1011] ({CH2CO}-FYDWV[Bip]R[NMeA][Trp(1-CH2COOH)]RLVSCG-NH2; thioether N-14) was 0.1 µM; that for `CC[C@H]1C(=O)N[C@H](CC(C)C)C(=O)N[C@@H](CCN)C(=O)N[C@@H](CC2CCCCC2)C(=O)N[C@@H](C(C)(C)O)C(=O)N[C@@H](CO)C(=O)N[C@H](C(=O)N[C@@H](CCN)C(N)=O)CSCC(=O)N[C@@H](Cc2ccncc2)C(=O)N[C@@H](Cc2ccc(OCC(=O)O)cc2)C(=O)N[C@@H](CC(=O)O)C(=O)N[C@@H](Cc2cccc(C)c2)C(=O)N[C@@H](Cc2ccc(OCC(=O)O)cc2)C(=O)N[C@@H](Cc2ccc(-c3ccccc3)cc2)C(=O)N[C@@H](Cc2ccc(OCC(=O)O)cc2)C(=O)N1C` [Compound 1837] ({CH2CO}-[4Pal]Y(Carboxymethyl)D[Phe(3-Me)]Y(Carboxymethyl)[Bip]Y(Carboxymethyl)[NMeAbu][dL][Dab][Cha][Val(3-OH)]SC[Dab]-NH2; thioether N-14) was 0.47 µM.
With `CC(C)C[C@@H]1NC(=O)[C@H](CCCN)NC(=O)[C@@H](CC(C)C)NC(=O)[C@H](C)N(C)C(=O)[C@H](CCCNC(N)=O)NC(=O)[C@H](Cc2ccc(-c3ccccc3)cc2)NC(=O)[C@H](C(C)C)NC(=O)[C@H](Cc2c[nH]c3ccccc23)NC(=O)[C@H](CC(=O)O)NC(=O)[C@H](Cc2ccc(O)cc2)NC(=O)[C@H](CC(N)=O)NC(=O)CSC[C@@H](C(=O)NCC(N)=O)NC(=O)[C@H]([C@@H](C)O)NC(=O)[C@H](C(C)C)NC1=O` [Compound 1235] ({CH2CO}-NYDWV[Bip][Cit][NMeA][dL][Orn]LVTCG-NH2; thioether N-14), the IC50 is 0.06 µM.
The value for `CC[C@@H]1NC(=O)[C@H](CCCNC(=N)N)NC(=O)[C@@H](CC(C)C)NC(=O)[C@H](C)N(C)C(=O)[C@H](CCCNC(=N)N)NC(=O)[C@H](Cc2ccc(-c3ccccc3)cc2)NC(=O)[C@H](C(C)C)NC(=O)[C@H](Cc2c[nH]c3ccccc23)NC(=O)[C@H](CC(=O)O)NC(=O)[C@H](Cc2ccc(O)cc2)NC(=O)[C@H](Cc2ccccc2)NC(=O)CSC[C@@H](C(=O)N[C@@H](C)C(N)=O)NC(=O)[C@H]([C@@H](C)O)NC(=O)[C@H](C(C)C)NC1=O` [Compound 1114] ({CH2CO}-FYDWV[Bip]R[NMeA][dL]R[Abu]VTCA-NH2; thioether N-14) was 0.93 µM; that for `COc1cccc(C[C@@H]2NC(=O)[C@H](CC(=O)O)NC(=O)[C@H](Cc3cccc(C)c3)NC(=O)[C@H](CN)NC(=O)CSC[C@@H](C(=O)N[C@@H](C)C(N)=O)NC(=O)[C@@H](CO)NC(=O)[C@H](C(C)C)NC(=O)[C@H](CC(C)C)NC(=O)[C@H](CC(N)=O)NC(=O)[C@@H](C)NC(=O)[C@H](C)N(C)C(=O)[C@H](C(C)C)NC(=O)[C@H](Cc3ccc(-c4ccccc4)cc3)NC(=O)[C@@H](CC(C)C)NC2=O)c1` [Compound 1464] ({CH2CO}-[Dap][Phe(3-Me)]D[Phe(3-OMe)][dL][Bip]V[NMeA][dA]NLV[dS]CA-NH2; thioether N-14) was 0.01 µM; that for `CC(C)C[C@@H]1NC(=O)[C@H](CCN)NC(=O)[C@@H](CC(C)C)NC(=O)[C@H](C)N(CCCCCN)C(=O)[C@H](CCCNC(=N)N)NC(=O)[C@H](Cc2ccc(-c3ccccc3)cc2)NC(=O)[C@H](C(C)C)NC(=O)[C@H](Cc2c[nH]c3ccccc23)NC(=O)[C@H](CC(=O)O)NC(=O)[C@H](Cc2ccc(O)cc2)NC(=O)[C@H](CC(N)=O)NC(=O)CSC[C@@H](C(=O)N[C@@H](C)C(N)=O)NC(=O)[C@H]([C@@H](C)O)NC(=O)[C@H](C(C)C)NC1=O` [Compound 1257] ({CH2CO}-NYDWV[Bip]R[X50][dL][Dab]LVTCA-NH2; thioether N-14) was 0.13 µM.
